Assay results from patent US20060069132A1, “Azolecarboxamide herbicides” (priority 2004, published 2006).

Tests used:
lambsquarters = assay: Test B pre-/postemergence herbicide test; type: in vivo, Chenopodium album
Procedure, shortened: (§1)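 Herbicidal effect was judged by eye on a 0–100 scale after plants stood 13 to 15 days in the greenhouse following pre- or postemergence treatment with surfactant-containing formulations.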

wild oat = assay: Test B postemergence herbicide test; type: in vivo, Avena fatua
Procedure, shortened: (§2)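 Scale 0–100: zero equals no visible effect, 100 complete control, judged by eye relative to controls. Timing: 13 to 15 days in greenhouse post-treatment. Growth stage at spraying: two leaves (paddy) or one to four leaves, 2–18 cm (postemergence).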

pigweed = assay: Test B pre-/postemergence herbicide test; type: in vivo, Amaranthus retroflexus
Procedure, shortened: as §1

rice = assay: Test B flooded paddy test; type: in vivo, Oryza sativa; conditions: 1000 g ai/ha, scale 0 to 100 (0 no effect, 100 complete control)
Procedure, shortened: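 Treated at 2-leaf (paddy) or 1–4-leaf, 2–18 cm (postemergence); greenhouse 13–15 d; visual score vs control, 0 none to 100 complete control; dash = not tested.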

blackgrass = assay: Test B postemergence herbicide test; type: in vivo, Alopecurus myosuroides
Procedure, shortened: (§3)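 Each value is a visual 0–100 response rating taken against controls 13 to 15 days after treatment in the greenhouse. Plants received formulated chemical postemergence at the 1- to 4-leaf stage or, in flooded paddy, at the 2-leaf stage.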

barnyardgrass [1] = assay: Test B flooded paddy test; type: in vivo, Echinochloa crus-galli; conditions: 1000 g ai/ha, scale 0 to 100 (0 no effect, 100 complete control)
Procedure, shortened: as §3

corn = assay: Test B pre-/postemergence herbicide test; type: in vivo, Zea mays
Procedure, shortened: as §1

[2] = tested on: small flower umbrella sedge; assay: Test B flooded paddy test; type: in vivo, Cyperus difformis; conditions: 1000 g ai/ha, scale 0 to 100 (0 no effect, 100 complete control)
Procedure, shortened: as §3

velvetleaf = assay: Test B pre-/postemergence herbicide test; type: in vivo, Abutilon theophrasti
Procedure, shortened: as §1

barnyardgrass [3] = assay: Test B pre-/postemergence herbicide test; type: in vivo, Echinochloa crus-galli
Procedure, shortened: (§4)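 Evaluation is visual, comparing treated with control plants on a scale where 0 means no effect and 100 means full control. Treatments were preemergence, or postemergence on seedlings 2–18 cm tall, and held 13–15 days in the greenhouse.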

ducksalad = assay: Test B flooded paddy test; type: in vivo, Heteranthera limosa; conditions: 1000 g ai/ha, scale 0 to 100 (0 no effect, 100 complete control)
Procedure, shortened: as §3

giant foxtail = assay: Test B pre-/postemergence herbicide test; type: in vivo, Setaria faberi
Procedure, shortened: as §1

cocklebur = assay: Test B pre-/postemergence herbicide test; type: in vivo, Xanthium strumarium
Procedure, shortened: as §4

wheat = assay: Test B postemergence herbicide test; type: in vivo, Triticum aestivum; set-up: key to Wheat plant response rating: 0 = no effect, 100 = complete control
Procedure, shortened: as §2

morningglory = assay: Test B pre-/postemergence herbicide test; type: in vivo, Ipomoea coccinea
Procedure, shortened: as §4

[4] = 125 g ai/ha, 0 is no effect, 100 is complete control, preemergence
[5] = Postemergence, 500 g ai/ha, scale 0 (no effect) to 100 (complete control)
[6] = postemergence, 125 g ai/ha, scale 0 to 100
[7] = 125 g ai/ha, 0 = no effect, 100 = complete control, preemergence
[8] = 500 g ai/ha, visual rating 0-100, 0 no effect, 100 complete control, preemergence
[9] = postemergence, 125 g ai/ha, visual rating, scale 0 (no effect) to 100 (complete control)
[10] = postemergence, 500 g ai/ha, visual rating, scale 0 (no effect) to 100 (complete control)
[11] = Postemergence, 500 g ai/ha, visual rating after 13 to 15 days, scale 0 (no effect) to 100 (complete control)
[12] = preemergence, 125 g ai/ha, 0 to 100 scale, 0 is no effect, 100 is complete control

CCn1nc(C(C)(C)C)cc1C(=O)Nc1cccc(OS(=O)(=O)CC)c1 [Compound 408]
100: Plant response rating (0 to 100 scale), Lambsquarters (lambsquarters; [4]) | Lambsquarters plant response rating (lambsquarters; [5]) | Plant response rating (0 to 100 scale), Pigweed (pigweed; [4]) | Pigweed plant response rating (pigweed; [5])
0: Plant response rating (0 to 100 scale), Cocklebur (cocklebur; [4])
10: Plant response rating (0 to 100 scale), Corn (corn; [4]) | Corn plant response rating (corn; [5]) | Corn plant response rating (corn; [6]) | Morningglory plant response rating (morningglory; [6])
50: Oat, Wild plant response rating (wild oat; [5]) | Plant response rating (0 to 100 scale), Velvetleaf (velvetleaf; [4]) | Foxtail, Giant plant response rating (giant foxtail; [5])
30: Oat, Wild plant response rating (wild oat; [6]) | Velvetleaf plant response rating (velvetleaf; [6]) | Foxtail, Giant plant response rating (giant foxtail; [6]) | Wheat plant response rating (wheat; [5]) | Morningglory plant response rating (morningglory; [5])
60: Cocklebur plant response rating (cocklebur; [6])
90: Lambsquarters plant response rating (lambsquarters; [6]) | Pigweed plant response rating (pigweed; [6]) | Sedge, Umbrella plant response rating [2] | Ducksalad plant response rating (ducksalad)
70: Barnyardgrass plant response rating (barnyardgrass [1]) | Velvetleaf plant response rating (velvetleaf; [5]) | Plant response rating (0 to 100 scale), Barnyardgrass (barnyardgrass [3]; [4]) | Cocklebur plant response rating (cocklebur; [5])
40: Blackgrass plant response rating (blackgrass; [6]) | Barnyardgrass plant response rating (barnyardgrass [3]; [5]) | Plant response rating (0 to 100 scale), Foxtail, Giant (giant foxtail; [4])
20: Barnyardgrass plant response rating (barnyardgrass [3]; Postemergence, 125 g ai/ha, scale 0 (no effect) to 100 (complete control)) | Wheat plant response rating (wheat; [6]) | Plant response rating (0 to 100 scale), Morningglory (morningglory; [4])
80: Rice plant response rating (rice) | Blackgrass plant response rating (blackgrass; [5]) | Wheat plant response rating (wheat; 500 g ai/ha, scale 0 to 100, 0 no effect, 100 complete control, preemergence)

CCc1nc(C(C)(C)C)sc1C(=O)Nc1cccc(C(=O)NCC2CC2)c1 [Compound 212]
60: Pigweed plant response rating (pigweed; [9]) | Plant response rating, Morningglory (morningglory; [8])
0: Cocklebur plant response rating (0 to 100 scale) (cocklebur; [7]) | Morningglory plant response rating (0 to 100 scale) (morningglory; [7])
100: Lambsquarters plant response rating (0 to 100 scale) (lambsquarters; [7]) | Plant response rating, Lambsquarters (lambsquarters; [8]) | Lambsquarters plant response rating (lambsquarters; [10]) | Pigweed plant response rating (0 to 100 scale) (pigweed; [7]) | Plant response rating, Pigweed (pigweed; [8]) | Plant response rating, Foxtail, Giant (giant foxtail; [8])
50: Barnyardgrass plant response rating (barnyardgrass [1]; visual rating, 13 to 15 days) | Velvetleaf plant response rating (velvetleaf; [9]) | Plant response rating, Cocklebur (cocklebur; [8]) | Morningglory plant response rating (morningglory; [10])
80: Plant response rating, Velvetleaf (velvetleaf; [8]) | Barnyardgrass plant response rating (0 to 100 scale) (barnyardgrass [3]; [7]) | Ducksalad plant response rating (ducksalad; visual rating, 13 to 15 days) | Cocklebur plant response rating (cocklebur; [9])
20: Oat, Wild plant response rating (wild oat; [9]) | Oat, Wild plant response rating (wild oat; [10]) | Blackgrass plant response rating (blackgrass; [10]) | Corn plant response rating (corn; [9]) | Barnyardgrass plant response rating (barnyardgrass [3]; [10]) | Wheat plant response rating (wheat; [10])
30: Plant response rating, Corn (corn; [8])
70: Rice plant response rating (rice; visual rating, 13 to 15 days) | Sedge, Umbrella plant response rating ([2]; visual rating, 13 to 15 days) | Velvetleaf plant response rating (velvetleaf; [10]) | Foxtail, Giant plant response rating (0 to 100 scale) (giant foxtail; [7])
40: Corn plant response rating (corn; [10]) | Foxtail, Giant plant response rating (giant foxtail; [10])
90: Lambsquarters plant response rating (lambsquarters; [9]) | Pigweed plant response rating (pigweed; [10]) | Plant response rating, Barnyardgrass (barnyardgrass [3]; [8]) | Cocklebur plant response rating (cocklebur; [10])
10: Blackgrass plant response rating (blackgrass; [9]) | Corn plant response rating (0 to 100 scale) (corn; [7]) | Velvetleaf plant response rating (0 to 100 scale) (velvetleaf; [7]) | Barnyardgrass plant response rating (barnyardgrass [3]; [9]) | Foxtail, Giant plant response rating (giant foxtail; [9]) | Wheat plant response rating (wheat; [9]) | Morningglory plant response rating (morningglory; [9])

CCOC(=O)c1cc(NC(=O)c2cc(C(C)(C)C)nn2CC)ccc1OCC [Compound 95]
30: Plant response rating, Foxtail, Giant (giant foxtail; [11])
0: Plant response rating, Blackgrass (blackgrass; [11]) | Blackgrass plant response rating (blackgrass; [9]) | Plant response rating, Velvetleaf (velvetleaf; [12]) | Barnyardgrass plant response rating (barnyardgrass [3]; [9]) | Plant response rating, Cocklebur (cocklebur; [8]) | Plant response rating, Cocklebur (cocklebur; [12]) | Morningglory plant response rating (morningglory; [9])
100: Plant response rating, Lambsquarters (lambsquarters; [8]) | Plant response rating, Lambsquarters (lambsquarters; [11]) | Lambsquarters plant response rating (lambsquarters; [9]) | Plant response rating, Lambsquarters (lambsquarters; [12]) | Plant response rating, Pigweed (pigweed; [8]) | Plant response rating, Pigweed (pigweed; [11]) | Plant response rating, Pigweed (pigweed; [12]) | Plant response rating, Foxtail, Giant (giant foxtail; [8])
80: Sedge, Umbrella plant response rating ([2]; visual rating, 13 to 15 days) | Plant response rating, Barnyardgrass (barnyardgrass [3]; [8]) | Ducksalad plant response rating (ducksalad; visual rating, 13 to 15 days)
20: Plant response rating, Oat, Wild (wild oat; [11]) | Plant response rating, Barnyardgrass (barnyardgrass [3]; [11])
50: Barnyardgrass plant response rating (barnyardgrass [1]; visual rating, 13 to 15 days) | Velvetleaf plant response rating (velvetleaf; [9]) | Plant response rating, Barnyardgrass (barnyardgrass [3]; [12]) | Plant response rating, Foxtail, Giant (giant foxtail; [12])
10: Oat, Wild plant response rating (wild oat; [9]) | Plant response rating, Corn (corn; [11]) | Corn plant response rating (corn; [9]) | Foxtail, Giant plant response rating (giant foxtail; [9]) | Plant response rating, Wheat (wheat; [11]) | Wheat plant response rating (wheat; [9]) | Plant response rating, Morningglory (morningglory; [12])
60: Rice plant response rating (rice; visual rating, 13 to 15 days) | Plant response rating, Corn (corn; [8]) | Plant response rating, Corn (corn; [12]) | Plant response rating, Velvetleaf (velvetleaf; [8]) | Plant response rating, Velvetleaf (velvetleaf; [11]) | Cocklebur plant response rating (cocklebur; [9]) | Plant response rating, Morningglory (morningglory; [11])
90: Pigweed plant response rating (pigweed; [9])
70: Plant response rating, Cocklebur (cocklebur; [11])
